Values quoted from earlier work as cited in patent US8993607B2, “Therapeutic compounds” (Rutgers, The State University of New Jersey, priority 2007, dated 2015).
pIC50: −log10 of the molar value.

Experiments:
[1] = tested on: natural bone marrow CD34-positive cells; conditions: compared, Tauchi et al., 2003
[2] = tested on: LAN1; conditions: human neuroblastoma cell line LAN1; Binz et al., 2005; read-out: cytotoxicity IC50
[3] = tested on: WAC2; conditions: human neuroblastoma cell line WAC2; Binz et al., 2005; read-out: cytotoxicity IC50
[4] = tested on: K62 leukemia cells; conditions: Tauchi et al., 2003
[5] = tested on: SK-N-AS; conditions: human neuroblastoma cell line SK-N-AS; Binz et al., 2005; read-out: cytotoxicity IC50
[6] = tested on: MiaPaCa; conditions: human pancreatic carcinoma MiaPaCa; Liu et al., 2005; read-out: cytotoxicity IC50
[7] = biological target: telomerase; conditions: read-out: telomerase inhibitory activity IC50
[8] = tested on: LANS; conditions: human neuroblastoma cell line LANS; Binz et al., 2005; read-out: cytotoxicity IC50
[9] = tested on: human breast cancer cell lines HBC-4, BSY-1, HBC-5, MCF-7, and MDA-MB-231; conditions: range over HBC-4, BSY-1, HBC-5, MCF-7, MDA-MB-231; Sohda et al., 2005

| pIC50 [7] | GI50 [9] | Compound | effect on burst-forming units—erythrocyte (BFU-E) and colony-forming units—granulocyte/macrophage (CFU-GM) [1] | pIC50 [2] | pIC50 [3] | plating efficiency [4] | pIC50 [5] | pIC50 [6] | pIC50 [8] |
| --- | --- | --- | --- | --- | --- | --- | --- | --- | --- |
| 8.30 | – | Cc1oc2nc1-c1nc(co1)-c1nc(co1)-c1nc(co1)-c1nc(co1)-c1nc(co1)C1=NC(CS1)c1nc-2c(C)o1 (stereo not drawn) [telomestatin] | much lesser effect | 5.40 | 5.49 | suppress the plating efficiency | 6.10 | 6.30 | 5.60 |
| – | 15 to 33 nM | CC[C@H](C)[C@@H]1NC(=O)c2nc(oc2-c2ccccc2)-c2csc(n2)-c2coc(n2)-c2coc(n2)-c2coc(n2)CNC(=O)[C@@H](C(C)C)NC1=O [YM-216391] | – | – | – | – | – | – | – |
